Experimental data from patent publication US6977259B2, “Quinoline derivatives and their use as aurora 2 kinase inhibitors” (AstraZeneca AB, priority 2000, dated 2005).

Experiments:
aurora2 kinase = molecular target: T1, aurora2 kinase (Homo sapiens, UniProt O14965); experiment: In vitro aurora2 kinase inhibition test; format: biochemical
T1 construct: made in house; host or cells: Spodoptera frugiperda Sf21 insect cells (baculovirus, pFastBac HTc)
T1 sequence (O14965 1-403): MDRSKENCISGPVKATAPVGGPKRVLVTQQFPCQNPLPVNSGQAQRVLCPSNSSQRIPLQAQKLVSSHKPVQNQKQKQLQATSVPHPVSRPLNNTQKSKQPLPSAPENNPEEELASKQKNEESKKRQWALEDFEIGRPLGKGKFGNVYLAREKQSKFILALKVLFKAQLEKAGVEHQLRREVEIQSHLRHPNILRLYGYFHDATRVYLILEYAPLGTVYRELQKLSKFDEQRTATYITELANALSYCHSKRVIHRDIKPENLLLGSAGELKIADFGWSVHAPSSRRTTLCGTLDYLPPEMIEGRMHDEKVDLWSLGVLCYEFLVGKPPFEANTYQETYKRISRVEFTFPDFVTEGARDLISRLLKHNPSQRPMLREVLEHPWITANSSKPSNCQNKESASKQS

MCF-7 cells [1] = experiment: In vitro cell proliferation assay 1 (CyQUANT cell density); format: cell-based; conditions: Homo sapiens, MCF7, 72 h; MCF-7, 3 days with compound, CyQUANT fluorescence; read-out: concentration giving 50% inhibition of cell proliferation
From the text: (§1) (b) In Vitro Cell Proliferation Assays
(§2) These and other assays can be used to determine the ability of a test compound to inhibit the growth of adherent mammalian cell lines, for example the human tumour cell line MCF7.
MCF-7 (ATCC HTB-22) or other adherent cells were typically seeded at 1×10^3 cells per well (excluding the peripheral wells) in DMEM (Sigma Aldrich) without phenol red, plus 10% foetal calf serum, 1% L-glutamine and 1% penicillin/streptomycin in 96 well tissue culture treated clear plates (Costar). The following day (day 1), the media was removed from a no treatment control plate and the plate stored at −80° C. […] The fluorescence of the wells was then measured using a fluorescence microplate reader (gain 70, 2 reads per well, 1 cycle with excitation 485 nm and emission 530 nm using a CytoFluor plate reader (PerSeptive Biosystems Inc.)). […]

MCF-7 cells [2] = experiment: In vitro cell proliferation assay II (BrdU incorporation); format: cell-based; conditions: Homo sapiens, MCF7; MCF-7, 48 hours with compound, 2 hour BrdU labelling, ELISA; read-out: concentration giving 50% inhibition of BrdU incorporation
From the text: as §1, §2
This assay determines the ability of at test compound to inhibit the incorporation of the thymidine analogue, 5′-bromo-2′-deoxy-uridine (BrdU) into cellular DNA. MCF-7 or other adherent cells were typically seeded at 0.8×10^4 cells per well in DMEM (Sigma Aldrich) without phenol red, plus 10% foetal calf serum, 1% L-glutamine and 1% penicillin/streptomycin (50 μl/well) in 96 well tissue culture treated 96 well plates (Costar) and allowed to adhere overnight. […] The optical density of the wells was then determined at 690 nm wavelength using a Titertek Multiscan plate reader. […]

Structure (SMILES)	IC50 (aurora2 kinase) [nM]	IC50 (MCF-7 cells [1]) [nM]	IC50 (MCF-7 cells [2]) [nM]
COc1cc2c(Nc3cnc(NC(=O)c4ccccc4)nc3)ccnc2cc1OCCCN1CCOCC1 [Compound 2]	59.2	456	460
O=C(Nc1ncc(Nc2ccnc3cc(OCCCN4CCOCC4)ccc23)cn1)c1ccccc1 [Compound 4]	78.5	185	190
